Source: patent US20220401514A1, “ANTIMICROBIAL, BACTERIOPHAGE-DERIVED POLYPEPTIDES AND THEIR USE AGAINST GRAM-NEGATIVE AND ACID-FAST BACTERIA” (CONTRAFECT CORPORATION, priority 2019, published 2022)
Where two headings read alike, the source gives them in different places.

Tests used:
[1] = tested on: P. aeruginosa strain PA20 persister cells; experiment: Activity against persister cells, P. aeruginosa; format: cell-based, Pseudomonas aeruginosa; settings: P. aeruginosa PA20 persister cells
[2] = tested on: A. baumannii strain BAA-747 persister cells; experiment: Activity against persister cells, A. baumannii; format: cell-based, Acinetobacter baumannii; settings: A. baumannii BAA-747 persister cells
[3] = tested on: P. aeruginosa strain CFS-1292; experiment: MIC in presence and absence of NaCl (140 mM); format: cell-based, Pseudomonas aeruginosa
Experimental: Certain Chp peptides were evaluated over a range of physiological NaCl levels and pH values, and were further evaluated for activity in the presence of various divalent cations.

[4] = tested on: Klebsiella pneumoniae; format: cell-based; settings: for MIC50 / MIC100 / MIC Range: K. pneumoniae isolates (n per peptide in table); for MIC: Klebsiella pneumoniae HM-44, CAA supplemented with human serum
Experimental: (§1) Determination of Minimal Inhibitory Concentrations (MIC).
Additional MIC testing was performed for several peptides against the ESKAPE pathogens Escherichia coli, Enterobacter cloacae, Klebsiella pneumoniae, and Acinetobacter baumannii, in CAA supplemented with human serum (Table D).

[5] = tested on: M. kansasii Hauduroy ATCC 12478; experiment: 45 hr MIC against M. kansasii (NTM), Mueller Hinton broth; format: cell-based, Mycobacterium kansasii
[6] = tested on: M. scrofulaceum; experiment: 45 hr MIC against M. scrofulaceum (NTM); format: cell-based, Mycobacterium scrofulaceum; settings: M. scrofulaceum Prissick and Masson ATCC 19981
[7] = tested on: carbapenem-resistant P. aeruginosa clinical isolate CFS-1292; experiment: MIC by modified CLSI broth microdilution against P. aeruginosa CFS-1292 (CAA, CAA + human serum); format: cell-based, Pseudomonas aeruginosa; settings: for MIC (μg/mL) against CFS-1292 in 100% CAA (1st run/2nd run): 1st run or single value
[8] = tested on: M. intracellulare; experiment: 45 hr MIC against M. intracellulare (NTM); format: cell-based, Mycobacterium intracellulare; settings: M. intracellulare (Cuttino and McCabe) Runyon ATCC 13950
[9] = tested on: carbapenem-resistant bacterial strains; experiment: organism not typed; format: cell-based
Source text: as §1

[10] = Stability assessment in 100% CAA; format: in vitro ADME; set-up: unit not given beside the values
Experimental: Stability was assessed after incubation in 100% human serum at 37° C. after 10 minutes, 1 hour, and 2 hours.
Stability assessment was further conducted in 100% CAA and rabbit serum using the same methodology discussed above.

[11] = tested on: M. fortuitum; experiment: 45 hr MIC against M. fortuitum (NTM); format: cell-based, Mycobacterium fortuitum; settings: M. fortuitum subsp. Fortuitum da Costa Cruz. ATCC 6841
[12] = tested on: S. maltophilia; experiment: MIC against S. maltophilia isolates; format: cell-based, Stenotrophomonas maltophilia; settings: S. maltophilia isolates (n per peptide in table)
Experimental: as §1
In addition to the results discussed above in Example 3, further testing was conducted on several Chp peptides. MIC values were determined against different species, including P. aeruginosa, K. pneumoniae, A. baumannii, E. cloacae, E. coli, and S. maltophilia, and the results are presented below in Tables 40-45, wherein n=number of isolates tested for each species and MIC is measured as μg/mL.

[13] = tested on: Escherichia coli; experiment: microbe, parasite or virus in culture; format: cell-based; settings: for MIC50 / MIC100 / MIC Range: E. coli isolates (n per peptide in table)
Method in brief: (§2)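 Peptide MICs were determined by growth inhibition in CAA medium supplemented with human serum.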

[14] = tested on: Enterobacter cloacae; experiment: microbe, parasite or virus in culture; format: cell-based
Method in brief: as §2

[15] = tested on: Klebsiella pneumoniae; experiment: microbe, parasite or virus in culture; format: cell-based; settings: CAA without human serum
[16] = tested on: Pseudomonas aeruginosa; experiment: microbe, parasite or virus in culture; format: cell-based; settings: for MIC: CAA without human serum
[17] = tested on: Mycobacterium tuberculosis strains
Experimental: MIC values for various Chp peptides were determined using the CLSI method for broth microdilution in 96-well microtiter format.
Next, MIC values for various Chp peptides were determined using the CLSI method above for broth microdilution in 96-well microtiter format for two different Mycobacterium tuberculosis strains. The MIC was determined as explained above for the NTM strains.

[18] = tested on: Acinetobacter baumannii; experiment: microbe, parasite or virus in culture; format: cell-based; settings: for MIC50 / MIC100 / MIC Range: A. baumannii isolates (n per peptide in table)
[19] = tested on: M. avium; experiment: 45 hr MIC against M. avium (NTM); format: cell-based, Mycobacterium avium; settings: M. avium Chester ATCC 700898
[20] = tested on: M. smegmatis; experiment: 45 hr MIC against M. smegmatis (NTM), Mueller Hinton broth; format: cell-based, Mycobacterium smegmatis
[21] = log10 CFU/mL reduction as compared to buffer
[22] = carbapenem-resistant isolate PA19
[23] = carbapenem-resistant isolate PA20
[24] = carbapenem-resistant isolate PA21
[25] = carbapenem-resistant isolate PA22
[26] = carbapenem-resistant isolate PA23
[27] = carbapenem-resistant isolate PA24
[28] = carbapenem-resistant isolate WLC-452
[29] = Escherichia coli ATCC 25922, CAA supplemented with human serum
[30] = E. cloacae isolates (n per peptide in table)
[31] = Enterobacter cloacae ATCC 13047, CAA supplemented with human serum
[32] = P. aeruginosa isolates (n per peptide in table)
[33] = Mycobacterium tuberculosis (Zopf) Lehmann and Neumann ATCC 25177
[34] = Mycobacterium tuberculosis (Zopf) Lehmann and Neumann ATCC 35817
[35] = Acinetobacter baumannii ATCC BAA 747, CAA supplemented with human serum

Lysozyme
Viable persister count after treatment (log10 CFU/mL) ([1]; Run #1, limit of detection 2-log10 CFU/mL): 4.7 Log10 (CFU/mL)
Viable persister count after treatment (log10 CFU/mL) ([1]; Run #2, limit of detection 2-log10 CFU/mL): 4.4 Log10 (CFU/mL)
Viable persister count after treatment (log10 CFU/mL) ([1]; Run #3, limit of detection 2-log10 CFU/mL): 4.2 Log10 (CFU/mL)
Viable persister count after treatment (log10 CFU/mL) ([1]; average of 3 runs): 4.4 Log10 (CFU/mL)
Delta Log [1, 21]: 0.0
MIC Log10 (CFU/mL) Run #1 ([2]; 1 hour at 37° C., Run #1, limit of detection 1.6-log10 CFU/mL): 3.5 Log10 (CFU/mL)
MIC Log10 (CFU/mL) Run #2 ([2]; 1 hour at 37° C., Run #2, limit of detection 1.6-log10 CFU/mL): 5.2 Log10 (CFU/mL)
MIC Log10 (CFU/mL) Run #3 ([2]; 1 hour at 37° C., Run #3, limit of detection 1.6-log10 CFU/mL): 5.0 Log10 (CFU/mL)
MIC Log10 (CFU/mL) Average ([2]; average of 3 runs): 4.6 Log10 (CFU/mL)
Delta Log [2, 21]: 0.3

MARSRRRMSKRSSRRSFRKYAKSHKKNFKARSMRGGIRL [Ecp2]
Fold change in MIC ([3]; CAA + 140 mM NaCl versus CAA without added NaCl): 8
MIC, CAA + 140 mM NaCl ([3]; CAA + 140 mM NaCl, P. aeruginosa CFS-1292): 2 µg/mL
MIC, CAA (no added NaCl) ([3]; CAA, no added NaCl, P. aeruginosa CFS-1292): 0.25 µg/mL
MIC50 [4]: 0.5 µg/mL
MIC100 [4]: 1 µg/mL
MIC Range [4]: 0.5 to 1 µg/mL
MIC [4]: 0.25 µg/mL
45 hr MIC [5]: 2 µg/mL
45 hr MIC [6]: 4 µg/mL
MIC (μg/mL) against CFS-1292 in 100% CAA (1st run/2nd run) [7]: 0.25 µg/mL
MIC (μg/mL) against CFS-1292 in CAA + […] human serum ([7]; CAA + […] human serum): 0.25 µg/mL
45 hr MIC [8]: 8 µg/mL
MIC [9, 22]: 0.5 µg/mL
MIC [9, 23]: 8 µg/mL
MIC [9, 24]: 8 µg/mL
MIC [9, 25]: 4 µg/mL
MIC [9, 26]: 2 µg/mL
MIC [9, 27]: 2 µg/mL
MIC [9, 28]: 1 µg/mL
MIC (100% CAA) [10]: 0.25
45 hr MIC [11]: 4 µg/mL
MIC50 [12]: 8 µg/mL
MIC100 [12]: >8 µg/mL
MIC ([13]; E. coli (ATCC 25922, MIC control strain), RSC 813, CAA without human serum): 2 µg/mL
MIC ([13]; E. coli (HM346, colon, Crohn's disease), RSC 1212, CAA without human serum): 4 µg/mL
MIC50 [13]: 0.5 µg/mL
MIC100 [13]: 1 µg/mL
MIC Range [13]: 0.24 to 4 µg/mL
MIC [13, 29]: 0.5 µg/mL
MIC50 [14, 30]: 0.25 µg/mL
MIC100 [14, 30]: 0.5 µg/mL
MIC Range [14, 30]: 0.125 to 2 µg/mL
MIC ([14]; Enterobacter cloacae (ATCC 13047, MIC control strain), RSC 1240, CAA without human serum): 4 µg/mL
MIC [14, 31]: 16 µg/mL
MIC ([15]; Klebsiella pneumoniae (ATCC 10031, MIC control strain), RSC 814): 4 µg/mL
MIC ([15]; Klebsiella pneumoniae (g2-3 HM35K), RSC 1138): 2 µg/mL
MIC ([15]; Klebsiella sp. (HM-44; colon, Crohn's disease), RSC 1139): 4 µg/mL
MIC ([15]; Klebsiella spp. (HM-223; gut of Crohn's disease patient), RSC 1131): 2 µg/mL
MIC ([16]; P. aeruginosa 453 (Human clinical isolate, HSS), RSC 1292): 8 µg/mL
MIC ([16]; P. aeruginosa (ATCC 14213, human hip wound), RSC 1111): 4 µg/mL
MIC ([16]; P. aeruginosa (ATCC 15152, abscess in middle ear), RSC 1110): 1 µg/mL
MIC ([16]; P. aeruginosa (ATCC 15692, infected wound), RSC 489): 2 µg/mL
MIC ([16]; P. aeruginosa (ATCC 15692, infected wound), RSC 1115): 8 µg/mL
MIC ([16]; P. aeruginosa (ATCC 17646, human liver abscess), RSC 1109): 4 µg/mL
MIC ([16]; P. aeruginosa (ATCC 19142, tracheobronchial secretion), RSC 1108): 4 µg/mL
MIC ([16]; P. aeruginosa (ATCC 25102, bacteriophage host), RSC 1114): 2 µg/mL
MIC ([16]; P. aeruginosa (ATCC 27853, MIC control strain), RSC 815): 2 µg/mL
MIC ([16]; P. aeruginosa (ATCC BAA-27, lab strain), RSC 1113): 2 µg/mL
MIC ([16]; P. aeruginosa (PAO1, alternate source, HER1018), RSC 490): 2 µg/mL
MIC50 [16, 32]: 2 µg/mL
MIC100 [16, 32]: 8 µg/mL
MIC Range [16, 32]: 0.5 to 8 µg/mL
MIC [17, 33]: 32 µg/mL
MIC [17, 34]: 8 µg/mL
MIC50 [18]: 0.25 µg/mL
MIC100 [18]: 0.5 µg/mL
MIC Range [18]: 0.125 to 0.5 µg/mL
MIC ([18]; Acinetobacter baumannii (clinical isolate HSS), RSC 30, CAA without human serum): 2 µg/mL
MIC ([18]; Acinetobacter baumannii (clinical isolate HSS), RSC 32, CAA without human serum): 2 µg/mL
MIC [18, 35]: 1 µg/mL
45 hr MIC [19]: 2 µg/mL
45 hr MIC ([20]; M. smegmatis MC^2 155, Run #1): 4 µg/mL
45 hr MIC ([20]; M. smegmatis MC^2 155, Run #2): 8 µg/mL

MSLRRHKLSRKASKRIFRKGASRTKTLNTRATPMRGGFRI [Chp9]
MIC50 [4]: >8 µg/mL
MIC100 [4]: >8 µg/mL
MIC Range [4]: >8 µg/mL
MIC [4]: 1 µg/mL
45 hr MIC [5]: 8 µg/mL
45 hr MIC [6]: 8 µg/mL
MIC (μg/mL) against CFS-1292 in 100% CAA (1st run/2nd run) [7]: 8 µg/mL
45 hr MIC [8]: 4 µg/mL
MIC [9, 22]: 8 µg/mL
MIC [9, 23]: >8 µg/mL
MIC [9, 24]: >8 µg/mL
MIC [9, 25]: >8 µg/mL
MIC [9, 26]: >8 µg/mL
MIC [9, 27]: >8 µg/mL
MIC [9, 28]: 8 µg/mL
MIC (100% CAA) [10]: 2
45 hr MIC [11]: 4 µg/mL
MIC50 [12]: >8 µg/mL
MIC100 [12]: >8 µg/mL
MIC50 [13]: 2 µg/mL
MIC100 [13]: 8 µg/mL
MIC Range [13]: 0.5 to 8 µg/mL
MIC [13, 29]: 1 µg/mL
MIC50 [14, 30]: 4 µg/mL
MIC100 [14, 30]: >8 µg/mL
MIC [14, 31]: 32 µg/mL
MIC50 [16, 32]: >8 µg/mL
MIC100 [16, 32]: >8 µg/mL
MIC [17, 33]: 32 µg/mL
MIC [17, 34]: 16 µg/mL
MIC50 [18]: 2 µg/mL
MIC100 [18]: 2 µg/mL
MIC Range [18]: 0.5 to 2 µg/mL
MIC [18, 35]: 4 µg/mL
45 hr MIC [19]: >64 µg/mL
45 hr MIC ([20]; M. smegmatis MC^2 155, Run #1): 4 µg/mL
45 hr MIC ([20]; M. smegmatis MC^2 155, Run #2): 8 µg/mL
